Laboratory results: the supplement of paper PMC11451515

Key:
Conditions in all cases: 48 h
NOMO1 [1] = assay: AUC of viability dose-response curve (% viability x log10 dose units); higher = less sensitive
In short: (§1)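 Over 48 h at 37°C, leukemia cells in 1536-well plates (500 or 1000 cells/well), adapted to each medium, received library compounds in DMSO at 11 threefold doses from 47 μM to 0.79 nM. CellTiter-Glo One luminescence, normalised per plate to DMSO and cell-free wells, was fitted by a four-parameter log-logistic function of log10 dose. The area under the curve was then integrated by trapezoidal rule, after scaling curves above full viability and removing those that failed quality control.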

P12-Ichikawa [2] = assay: as above
In short: as §1

SEM cells [3] = assay: as above
In short: as §1

NOMO1 [4] = assay: cell viability relative to DMSO control; higher = less cytotoxic
In short: (§2)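 Viability is expressed as a percentage of DMSO wells within each plate, and cell-free wells serve as background. Seeding densities in the 1536-well plates (5 μl) were 500 cells/well for NOMO1 or SEM leukemia cells and 1000 cells/well for P12-Ichikawa. Each line was adapted for at least four passages in each medium. Library compounds in DMSO were pin-dosed at 47 μM to 0.79 nM (11 points, threefold), and CellTiter-Glo One luminescence was read after 48 h at 37°C.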

SEM cells [5] = assay: as above
In short: as §2

P12-Ichikawa [6] = assay: as above
In short: as §2

NC/1=N/C(=O)C2=C(N1)[N](C=N2)[C@@H]3C[C@H](O)[C@@H](CO)C3=C
AUC of viability dose-response curve
Conditions | NOMO1 [1] | P12-Ichikawa [2] | SEM cells [3]
HPLM + 10% dialyzed FBS | 385 | 351 | 248
RPMI 5 mM glucose + 10% FBS | 423 | 342 | 272
RPMI 5 mM glucose + 10% dialyzed FBS | 378 | 331 | 200

C[S+](=O)([O-])c1cc(F)cc2c3c(n(Cc4ccc(Cl)cc4)c12)[C@@H](CC(=O)O)CC3
AUC of viability dose-response curve
Conditions | HPLM + 10% dialyzed FBS | RPMI 5 mM glucose + 10% FBS | RPMI 5 mM glucose + 10% dialyzed FBS
P12-Ichikawa [2] | 466 | 451 | 467
SEM cells [3] | 477 | 468 | 461

CC(=O)O[C@@]1(CC[C@H]2[C@@H]3\C=C(Cl)/C4=C/C(=O)[C@@H]5C[C@@H]5[C@]4(C)[C@H]3CC[C@]12C)C(C)=O
cell viability [%]
Conditions | NOMO1 [4] | SEM cells [5]
HPLM + 10% dialyzed FBS, 0.000781 µM | 95.1 | 111
HPLM + 10% dialyzed FBS, 0.00234 µM | 124 | 120
HPLM + 10% dialyzed FBS, 0.00702 µM | 140 | 126
HPLM + 10% dialyzed FBS, 0.0211 µM | 137 | 125
HPLM + 10% dialyzed FBS, 0.0632 µM | 133 | 131
HPLM + 10% dialyzed FBS, 0.19 µM | 135 | 130
HPLM + 10% dialyzed FBS, 0.569 µM | 114 | 128
HPLM + 10% dialyzed FBS, 1.71 µM | 66.4 | 131
HPLM + 10% dialyzed FBS, 5.12 µM | 36 | 136
HPLM + 10% dialyzed FBS, 15.4 µM | 38.5 | 134
HPLM + 10% dialyzed FBS, 46.1 µM | 34.5 | 127
RPMI 5 mM glucose + 10% FBS, 0.000781 µM | – | 115
RPMI 5 mM glucose + 10% FBS, 0.00234 µM | – | 115
RPMI 5 mM glucose + 10% FBS, 0.00702 µM | – | 126
RPMI 5 mM glucose + 10% FBS, 0.0211 µM | – | 119
RPMI 5 mM glucose + 10% FBS, 0.0632 µM | – | 118
RPMI 5 mM glucose + 10% FBS, 0.19 µM | – | 144
RPMI 5 mM glucose + 10% FBS, 0.569 µM | – | 128
RPMI 5 mM glucose + 10% FBS, 1.71 µM | – | 116
RPMI 5 mM glucose + 10% FBS, 5.12 µM | – | 120
RPMI 5 mM glucose + 10% FBS, 15.4 µM | – | 135
RPMI 5 mM glucose + 10% FBS, 46.1 µM | – | 135

AUC of viability dose-response curve
Conditions | HPLM + 10% dialyzed FBS | RPMI 5 mM glucose + 10% FBS | RPMI 5 mM glucose + 10% dialyzed FBS
NOMO1 [1] | 364 | 322 | 360
SEM cells [3] | 464 | 450 | 442

O=C(Nc1cccc(C(F)(F)F)c1)Nc1cc([S+](=O)([O-])NC2CC2)ccc1-c1ccsc1
cell viability [%]
Conditions | NOMO1 [4] | P12-Ichikawa [6] | SEM cells [5]
HPLM + 10% dialyzed FBS, 0.000781 µM | – | 127 | 101
HPLM + 10% dialyzed FBS, 0.00234 µM | – | 109 | 108
HPLM + 10% dialyzed FBS, 0.00702 µM | – | 115 | 117
HPLM + 10% dialyzed FBS, 0.0211 µM | – | 111 | 97.1
HPLM + 10% dialyzed FBS, 0.0632 µM | – | 112 | 110
HPLM + 10% dialyzed FBS, 0.19 µM | – | 114 | 118
HPLM + 10% dialyzed FBS, 0.569 µM | – | 110 | 109
HPLM + 10% dialyzed FBS, 1.71 µM | – | 110 | 102
HPLM + 10% dialyzed FBS, 5.12 µM | – | 108 | 113
HPLM + 10% dialyzed FBS, 15.4 µM | – | 104 | 106
HPLM + 10% dialyzed FBS, 46.1 µM | – | 76.9 | 61.9
RPMI 5 mM glucose + 10% FBS, 0.000781 µM | 111 | 120 | –
RPMI 5 mM glucose + 10% FBS, 0.00234 µM | 99.2 | 118 | –
RPMI 5 mM glucose + 10% FBS, 0.00702 µM | 102 | 119 | –
RPMI 5 mM glucose + 10% FBS, 0.0211 µM | 105 | 112 | –
RPMI 5 mM glucose + 10% FBS, 0.0632 µM | 104 | 123 | –
RPMI 5 mM glucose + 10% FBS, 0.19 µM | 97.7 | 118 | –
RPMI 5 mM glucose + 10% FBS, 0.569 µM | 105 | 116 | –
RPMI 5 mM glucose + 10% FBS, 1.71 µM | 109 | 119 | –
RPMI 5 mM glucose + 10% FBS, 5.12 µM | 105 | 112 | –
RPMI 5 mM glucose + 10% FBS, 15.4 µM | 96 | 110 | –
RPMI 5 mM glucose + 10% FBS, 46.1 µM | 16.5 | 69.8 | –
RPMI 5 mM glucose + 10% dialyzed FBS, 0.000781 µM | – | 121 | 101
RPMI 5 mM glucose + 10% dialyzed FBS, 0.00234 µM | – | 116 | 107
RPMI 5 mM glucose + 10% dialyzed FBS, 0.00702 µM | – | 107 | 118
RPMI 5 mM glucose + 10% dialyzed FBS, 0.0211 µM | – | 121 | 105
RPMI 5 mM glucose + 10% dialyzed FBS, 0.0632 µM | – | 117 | 107
RPMI 5 mM glucose + 10% dialyzed FBS, 0.19 µM | – | 119 | 111
RPMI 5 mM glucose + 10% dialyzed FBS, 0.569 µM | – | 105 | 104
RPMI 5 mM glucose + 10% dialyzed FBS, 1.71 µM | – | 94.1 | 83.4
RPMI 5 mM glucose + 10% dialyzed FBS, 5.12 µM | – | 107 | 94.9
RPMI 5 mM glucose + 10% dialyzed FBS, 15.4 µM | – | 103 | 101
RPMI 5 mM glucose + 10% dialyzed FBS, 46.1 µM | – | 50.1 | 10.3

AUC of viability dose-response curve
Conditions | HPLM + 10% dialyzed FBS | RPMI 5 mM glucose + 10% FBS | RPMI 5 mM glucose + 10% dialyzed FBS
P12-Ichikawa [2] | 466 | 465 | 460
SEM cells [3] | 466 | 399 | 454

CNC(=O)c1c(-c2ccc(F)cc2)oc2cc(N(CCO)[S+](C)(=O)[O-])c(C3CC3)cc12
cell viability [%], SEM cells [5]
Conditions | HPLM + 10% dialyzed FBS | RPMI 5 mM glucose + 10% FBS | RPMI 5 mM glucose + 10% dialyzed FBS
0.000781 µM | 82.4 | 44.5 | 75.4
0.00234 µM | 117 | 71.1 | 111
0.00702 µM | 117 | 77.3 | 118
0.0211 µM | 110 | 69.1 | 106
0.0632 µM | 71.9 | 41.9 | 65.2
0.19 µM | 51.8 | 26.8 | 46.8
0.569 µM | 67.2 | 39.9 | 59.4
1.71 µM | 51.2 | 31.5 | 48
5.12 µM | 25.4 | 23.8 | 24.4
15.4 µM | 14.3 | 5.58 | 10.2
46.1 µM | 3.38 | 1.22 | 1

AUC of viability dose-response curve
Conditions | HPLM + 10% dialyzed FBS | RPMI 5 mM glucose + 10% FBS | RPMI 5 mM glucose + 10% dialyzed FBS
NOMO1 [1] | 395 | 412 | 425
P12-Ichikawa [2] | 382 | 407 | 404
